Laboratory results published in US10144729B2, “Isoxazole analogs as FXR agonists and methods of use thereof” (Enanta Pharmaceuticals, Inc., priority 2016, dated 2018).

Biological target: human FXR (NR1H4) (Homo sapiens (Human), UniProt Q96RI1)
Test: Human FXR (NR1H4) Assay (Gal4 promoter driven luciferase reporter, CHO cells)
Assay type: cell-based
Conditions: for Efficacy (%): FXR reporter assay in CHO cells, efficacy normalized to CDCA set as 100%
Source text: Human FXR (NR1H4) Assay Determination of a ligand mediated Gal4 promoter driven transactivation to quantify ligand binding mediated activation of FXR. […] The principle application of this reporter assay system is to quantify functional activity of human FXR. The assay utilizes non-human mammalian cells, CHO (Chinese hamster ovary) cells engineered to express human NR1H4 protein (referred to as FXR). Reporter cells also incorporate the cDNA encoding beetle luciferase which catalyzes the substrates and yields photon emission. Luminescence intensity of the reaction is quantified using a plate-reading luminometer, Envision. Reporter Cells include the luciferase reporter gene functionally linked to an FXR responsive promoter. Thus, quantifying changes in luciferase expression in the treated reporter cells provides a sensitive surrogate measure of the changes in FXR activity. […] The assay is according to the manufacturer's instructions. […] Retrieve Reporter Cells from −80° C. storage. Perform a rapid thaw of the frozen cells by transferring a 10 ml volume of 37° C. cell recovery medium into the tube of frozen cells. Recap the tube of Reporter Cells and immediately place it in a 37° C. water bath for 5-10 minutes. Retrieve the tube of Reporter Cell Suspension from the water bath. Sanitize the outside surface of the tube with a 70% alcohol swab, and then transfer it into the cell culture hood. Dispense 90 μl of cell suspension into each well of the 96-well Assay Plate. Transfer the plate into 37° C. incubator, allowing the cells adherent to the bottom of the well. Dilute compounds in Dilution Plate (DP), and administrate to cells at Assay Plate (AP). DMSO content of the samples was kept at 0.2%. Cells were incubated for additional 22 hours before luciferase activities were measured. Thirty minutes before intending to quantify FXR activity, remove Detection Substrate and Detection Buffer from the refrigerator and place them in a low-light area so that they may equilibrate to room temperature. Remove the plate's lid and discard all media contents by ejecting it into an appropriate waste container. Gently tap the inverted plate onto a clean absorbent paper towel to remove residual droplets. Cells will remain tightly adhered to well bottoms. Add 100 μl of luciferase detection reagent to each well of the assay plate. Allow the assay plate to rest at room temperature for at least 5 minutes following the addition of LDR. Set the instrument (Envision) to perform a single 5 second “plate shake” prior to reading the first assay well. Read time may be 0.5 second (500 mSec) per well.

human FXR (NR1H4), sequence (Q96RI1 whole entry, the tested form may be a part): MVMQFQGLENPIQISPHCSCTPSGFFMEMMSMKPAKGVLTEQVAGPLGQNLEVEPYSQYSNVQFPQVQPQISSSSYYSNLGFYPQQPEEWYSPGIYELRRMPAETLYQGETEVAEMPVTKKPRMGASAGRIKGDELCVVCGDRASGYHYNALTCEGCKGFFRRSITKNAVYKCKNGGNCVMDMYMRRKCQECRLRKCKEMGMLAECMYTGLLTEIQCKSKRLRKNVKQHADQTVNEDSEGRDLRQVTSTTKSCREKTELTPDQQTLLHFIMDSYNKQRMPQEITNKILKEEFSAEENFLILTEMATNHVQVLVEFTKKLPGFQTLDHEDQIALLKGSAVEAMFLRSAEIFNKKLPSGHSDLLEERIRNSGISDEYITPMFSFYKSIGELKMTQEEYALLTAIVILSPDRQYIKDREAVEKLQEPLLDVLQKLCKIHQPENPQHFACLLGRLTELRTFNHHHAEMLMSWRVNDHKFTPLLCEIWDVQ

Row | Structure (SMILES) | EC50 [µM] | Efficacy (%)
1 | CN(C)S(=O)(=O)NC(=O)c1ccc([C@@H]2C[C@H]2c2ccc(OCc3c(-c4c(Cl)cccc4Cl)noc3C3CC3)cc2Cl)cc1 [Example 1a] | 0.1 to 1 | 271
2 | CN(C)S(=O)(=O)NC(=O)Nc1ccc([C@@H]2C[C@H]2c2ccc(OCc3c(-c4c(Cl)cccc4Cl)noc3C3CC3)cc2Cl)cc1 [Example 1b] | 1 to 10 | 194

Now from value to compound:

Row | EC50 [µM] | Efficacy (%) | Structure (SMILES)
3 | 1 to 10 | 115 | CC(C)(C)c1ccc(S(=O)(=O)NC(=O)c2ccc([C@@H]3C[C@H]3c3ccc(OCc4c(-c5c(Cl)cccc5Cl)noc4C4CC4)cc3Cl)cc2)cc1 [Example 2a]
4 | 0.1 to 1 | 209 | O=C(NS(=O)(=O)C1CC1)c1ccc([C@@H]2C[C@H]2c2ccc(OCc3c(-c4c(Cl)cccc4Cl)noc3C3CC3)cc2Cl)cc1 [Example 2c]
5 | 0.1 to 1 | 236 | CC(C)(C)c1ccc(S(=O)(=O)NC(=O)Nc2ccc([C@@H]3C[C@H]3c3ccc(OCc4c(-c5c(Cl)cccc5Cl)noc4C4CC4)cc3Cl)cc2)cc1 [Example 2d]
